Reference: patent US20110065715A1, “Nogo Receptor Binding Small Molecules to Promote Axonal Growth” (Yale University, priority 2007, published 2011)
Entries after “also recorded” stand apart in the source; their conditions may differ. Like-named read-outs stand apart in the source and are kept apart here.

Tests used:
[1] = tested on: Nogo receptor:Nogo ligand (Nogo 66) interaction; test: DELFIA assay of Fc-NgR:Ng66 interaction; format: binding
Experimental: ELISA and DELFIA assays were then performed to evaluate the ability of the small molecules that were identified as “hits” in the AlphaScreens to inhibit the interaction of NgR and Nogo ligand. In the DELFIA Assay, 96 well streptavidin coated plates were blocked overnight with PBS and 10 mg/ml bovine serum albumin (BSA) (200 μl). The wells were then coated for 1.5 hours with sonicated HBH (Hanks Balanced Salt Solution/0.1 M HEPES/1 mg/ml BSA) containing Nogo 66 (B66) (0.5 μl of 10 mM/10 ml HBH) (50 μl) and then washed 4 times with 200 μl of HBH. The solution containing the inhibitor compound (50 μl in HBH) was added along with 1% FcNgR solution in HBH (50 μl), and the solution was incubated for 2 hours. The wells were washed 5 times with HBH. Alkaline phosphatase (AP) conjugated mouse anti-rat antibody (1:2500) was added and the wells were then washed 5 times with DELFIA wash buffer. The Europium (Eu) anti-mouse antibody was then added in Perlin Elmer Assay, buffer (100 μg/ml) (150 μl) and the wells were again washed 5 times with DELFIA wash buffer. The enhancer solution was added (100 μl) and the plate was read with the Perkin Elmer Victor 5 instrument 15 minutes later. (FIG. 10B) The results from the DELFIA assay indicate that compounds HTS08871, KM08071, and 503749, as well as the positive control, NEP33, inhibit the Nogo receptor:Nogo ligand (Nogo 66) interaction. (FIGS. 10D and 11A-C).

[2] = tested on: embryonic day 13 or 14 chick DRG neurons; test: Neurite outgrowth assay, E13/E14 chick DRG neurons; format: cell-based, chicken; settings: 20 μM
Experimental: To test the ability of the “hit” compounds to promote neurite outgrowth, a neurite outgrowth assay was performed using each of these compounds. Dorsal root ganglia (DRG) were removed from chicken embryos at embryonic day 13 or 14, dissociated by trituration after 30 min incubation in 0.5% collagenase, and plated on laminin-coated 96-well tissue culture plates in DMEM with 10% fetal bovine serum containing 20 μM of the test compound. After two to four hours of incubation, the cells were fixed in 4% formaldehyde in phosphate buffered saline (PBS), washed in PBS, and blocked for 1 hour in PBS with 0.1% triton X-100 and 10% goat serum. The cells were incubated in rabbit anti-beta-3-tubulin (1:500) in PBS overnight and then washed 3 times with PBS. The cells were then incubated in Alexa-fluor 488 goat anti-rabbit IgG (1:500) for 6 hrs, washed with PBS, and imaged at 10× with an ImagExpress automated microscope (Molecular Devices, Inc.). Neurite outgrowth was measured with AcuityExpress software (Molecular Devices, Inc.).

[3] = tested on: postnatal day 15 (P15) wild type mouse DRG neurons; test: Neurite outgrowth, P15 wild type mouse DRG neurons; format: cell-based; settings: 24 hours
Experimental: (§1) However, the inhibition of neurite outgrowth by the compound S is believed to be independent of its interaction with the Nogo receptor-Nogo ligand complex. Dorsal root ganglia (DRG) were removed from wild type or NgR1 knockout mouse pups at postnatal day 15, dissociated by trituration after 30 min incubation in 0.5% collagenase, plated on laminin-coated 96-well tissue culture plates in DMEM with 10% fetal bovine serum and B27. After 24 hours, cells were fixed in 4% formaldehyde in phosphate buffered saline (PBS), washed in PBS, and blocked for 1 hour in PBS with 0.1% triton X-100 and 10% goat serum. The cells were then incubated in rabbit anti-beta-3-tubulin (1:500) in PBS overnight. After washing 3 times, the cells were incubated in Alexa-fluor 488 goat anti-rabbit IgG (1:500) for 6 hrs, washed with PBS, and imaged at 10× with an ImagExpress automated microscope (Molecular Devices, Inc.). Neurite outgrowth was measured with AcuityExpress software (Molecular Devices, Inc.).

[4] = tested on: postnatal day 15 (P15) NgR1 knockout mouse DRG neurons; test: Neurite outgrowth, P15 NgR1 knockout mouse DRG neurons; format: cell-based; settings: 24 hours
Experimental: as §1

N#Cc1ccc(CN2C(=O)CSC2=S)cc1 [S, 4-[(4-oxo-2-thioxo-1,3-thiazolan-3-yl)methyl]benzonitrile]
inhibition of Nogo receptor:Nogo 66 interaction signal, DELFIA [1]: dose dependent signal inhibition | inhibition of Nogo receptor:Nogo 66 interaction signal, DELFIA ([1]; listed as 503749): inhibit | neurite outgrowth compared to the DMSO control ([2]; E13 or E14 chick DRG, two to four hours): inhibited neurite outgrowth | basal neurite outgrowth, E14 chick DRG neurons ([2]; E14): no basal neurite outgrowth | neurite outgrowth, wild type mice [3]: inhibits neurite outgrowth; also recorded: inhibitory effect | neurite outgrowth, NgR1 knockout mice [4]: inhibits neurite outgrowth; also recorded: inhibitory effect
